Starred links: 1 amine or outer side, 2 acyl side, 3 side chain; linkers in the order of their positions; H or OH if unused. Positions of bridges follow the written chain, without caps; N, C: chain ends. Non-standard residues stand in square brackets, D forms with d. Residues, ends and D or L forms follow the SMILES beside them. ξ: configuration not given here. *: point of attachment. Ala(1H-tetrazol-5-yl) = N[C@@H](Cc1nnn[nH]1)C(=O)O; Bip = N[C@@H](Cc1ccc(-c2ccccc2)cc1)C(=O)O; NMeY = CN[C@@H](Cc1ccc(O)cc1)C(=O)O; NMeF = CN[C@@H](Cc1ccccc1)C(=O)O; X2 = O=C([C@H]1COCCN1[*:1])[*:2]; Cha = N[C@@H](CC1CCCCC1)C(=O)O; Ala(CN) = N#CC[C@H](N)C(=O)O; Carboxymethyl = O=C(O)C*; NMeA = CN[C@@H](C)C(=O)O; Orn = NCCC[C@H](N)C(=O)O; Dab = NCC[C@H](N)C(=O)O; Dap = NC[C@H](N)C(=O)O; ξV = CC(C)C(N)C(=O)O; Sar = CNCC(=O)O
Target: T1, human PD-1 (Jurkat-PD-1 cells) / PE-labeled human PD-L1-Ig (Homo sapiens, UniProt Q15116)
T1 construct: expressed in transfected cells; host or cells: Jurkat cell line over-expressing human PD-1
T1 sequence (Q15116 25-288): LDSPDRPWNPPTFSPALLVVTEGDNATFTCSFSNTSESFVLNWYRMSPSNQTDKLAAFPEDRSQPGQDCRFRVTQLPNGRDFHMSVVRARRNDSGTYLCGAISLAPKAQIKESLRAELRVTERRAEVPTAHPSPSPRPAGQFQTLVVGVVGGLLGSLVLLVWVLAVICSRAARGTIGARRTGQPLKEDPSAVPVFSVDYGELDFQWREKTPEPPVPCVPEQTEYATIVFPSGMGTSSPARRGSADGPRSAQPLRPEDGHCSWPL
Experiment: Jurkat-PD-1 Cell Binding High-Content Screening Assay (CBA); Jurkat hPD1-PDL1 assay
Conditions: Jurkat cell line over-expressing human PD-1; PE-labeled PD-L1-Ig 20 nM final; compound incubated 2 hours at 37° C.; read-out: Jurkat HPD1-PDL1 IC50
Method in brief: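 Jurkat cells over-expressing human PD-1, seeded in DMEM with 10% fetal calf serum, were preincubated with compound for 2 hours at 37° C. PE-labeled human PD-L1-Ig was then added at 20 nM final, and cell-bound fluorescence was read by high-content imaging.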

Row | SMILES | IC50 [µM]
1 | CC(C)C[C@@H]1NC(=O)[C@H](Cc2c[nH]c3ccccc23)NC(=O)[C@H](CC#N)NC(=O)[C@H](Cc2ccc(O)cc2)NC(=O)[C@H](Cc2ccccc2)NC(=O)CSC[C@@H](C(=O)N[C@@H](C)C(N)=O)NC(=O)[C@H](CO)NC(=O)[C@H](C(C)C)NC(=O)[C@H](CC(C)C)NC(=O)[C@H](CC(N)=O)NC(=O)[C@H]2CCCN2C(=O)[C@H](C)N(C)C(=O)[C@H](C(C)C)NC(=O)[C@H](Cc2ccc(-c3ccccc3)cc2)NC1=O [Example 1429] ({CH2CO}-FY[Ala(CN)]WL[Bip]V[NMeA][dP]NLVSCA-NH2; thioether N-14) | 0.01
2 | CC(C)C[C@@H]1NC(=O)[C@H](Cc2c[nH]c3ccccc23)NC(=O)[C@H](CC(=O)O)NC(=O)[C@H](Cc2ccc(O)cc2)NC(=O)[C@H](Cc2ccccc2)NC(=O)CSC[C@@H](C(=O)N[C@@H](C)C(N)=O)NC(=O)[C@H](CO)NC(=O)[C@H](C(C)C)NC(=O)[C@H](CC(C)C)NC(=O)[C@H](CC(N)=O)NC(=O)[C@H]2COCCN2C(=O)[C@H](C)N(C)C(=O)[C@H](C(C)C)NC(=O)[C@H](Cc2ccc(-c3ccccc3)cc2)NC1=O [Example 1044] ({CH2CO}-FYDWL[Bip]V[NMeA][X2]NLVSCA-NH2; thioether N-14) | 0.08
3 | COC[C@@H]1NC(=O)[C@H](C(C)C)NC(=O)[C@H](CC(C)C)NC(=O)[C@H](CC(N)=O)NC(=O)CN(C)C(=O)[C@H](C)N(C)C(=O)[C@H](C(C)C)NC(=O)[C@H](Cc2ccc(-c3ccccc3)cc2)NC(=O)[C@H](CC(C)C)NC(=O)[C@H](Cc2c[nH]c3ccccc23)NC(=O)[C@H](CC(=O)O)NC(=O)[C@H](Cc2ccc(O)cc2)NC(=O)[C@H](Cc2ccccc2)NC(=O)CSC[C@@H](C(=O)N[C@@H](C)C(N)=O)NC1=O [Example 1123] ({CH2CO}-FYDWL[Bip]V[NMeA][Sar]NLVS(Me)CA-NH2; thioether N-14) | 0.44
4 | CC(C)C1NC(=O)[C@H](Cc2c[nH]c3ccccc23)NC(=O)[C@H](CC(=O)O)NC(=O)[C@H](Cc2ccc(OCC(=O)O)cc2)NC(=O)[C@H](CN)NC(=O)CSC[C@@H](C(=O)N[C@@H](C)C(N)=O)NC(=O)[C@H]([C@@H](C)O)NC(=O)[C@H](C(C)C)NC(=O)[C@H](CC2CCCCC2)NC(=O)[C@H](CCN)NC(=O)[C@H](Cc2ccc(O)cc2)N(C)C(=O)[C@H](CCCN)NC(=O)[C@H](CCC(=O)O)NC(=O)[C@H](Cc2ccc(-c3ccccc3)cc2)NC1=O (stereo partly drawn) [Example 1453] ({CH2CO}-[Dap]Y(Carboxymethyl)DW[ξV][Bip]E[Orn][NMeY][Dab][Cha]VTCA-NH2; thioether N-14) | 0.32
5 | CC(C)C[C@@H]1NC(=O)[C@H](Cc2c[nH]c3ccccc23)NC(=O)[C@H](CC(=O)O)NC(=O)[C@H](Cc2ccc(O)cc2)NC(=O)[C@H](Cc2ccccc2)NC(=O)CSC[C@@H](C(=O)N[C@@H](C)C(N)=O)NC(=O)[C@H]([C@@H](C)O)NC(=O)[C@H](C(C)C)NC(=O)[C@H](CC(C)C)NC(=O)[C@H](CC(N)=O)NC(=O)[C@H]2CCCN2C(=O)[C@H](C)N(C)C(=O)[C@H](C(C)C)NC(=O)[C@H](Cc2ccc(-c3ccccc3)cc2)NC1=O [Example 1050] ({CH2CO}-FYDWL[Bip]V[NMeA][dP]NLVTCA-NH2; thioether N-14) | 0.11
6 | CC(C)C[C@@H]1NC(=O)CSC[C@@H](C(=O)NCC(N)=O)NC(=O)[C@H](CO)NC(=O)[C@H](C(C)C)NC(=O)[C@H](CC(C)C)NC(=O)[C@H](CC(N)=O)NC(=O)CN(C)C(=O)[C@H](C)N(C)C(=O)[C@H](C(C)C)NC(=O)[C@H](Cc2ccc(-c3ccccc3)cc2)NC(=O)[C@H](CC(C)C)NC(=O)[C@H](Cc2c[nH]c3ccccc23)NC(=O)[C@H](CC(=O)O)NC(=O)[C@H](Cc2ccc(O)cc2)NC1=O [Example 1141] ({CH2CO}-LYDWL[Bip]V[NMeA][Sar]NLVSCG-NH2; thioether N-14) | 0.61
7 | CC(C)C[C@@H]1NC(=O)[C@H](C(C)C)NC(=O)[C@H](Cc2ccccc2)N(C)C(=O)[C@H](C)N(C)C(=O)[C@H](CCCNC(=N)N)NC(=O)[C@H](Cc2ccc(-c3ccccc3)cc2)NC(=O)[C@H](C(C)C)NC(=O)[C@H](Cc2c[nH]c3ccccc23)NC(=O)[C@H](CC(=O)O)NC(=O)[C@H](Cc2ccc(O)cc2)NC(=O)[C@H](Cc2ccccc2)NC(=O)CSC[C@@H](C(=O)NCC(N)=O)NC(=O)[C@H](CO)NC(=O)[C@H](C(C)C)NC1=O [Example 1239] ({CH2CO}-FYDWV[Bip]R[NMeA][NMeF]VLVSCG-NH2; thioether N-14) | 0.11
8 | CC(C)C[C@@H]1NC(=O)[C@H](Cc2c[nH]c3ccccc23)NC(=O)[C@H](CC(=O)O)NC(=O)[C@H](Cc2ccc(O)cc2)NC(=O)[C@H](Cc2ccccc2)NC(=O)CSC[C@@H](C(=O)N[C@@H](C)C(N)=O)NC(=O)[C@H]([C@@H](C)O)NC(=O)[C@H](C(C)C)NC(=O)[C@H](CC(C)C)NC(=O)[C@H](CC(N)=O)NC(=O)[C@H]2CCCN2C(=O)[C@H](CCCN)NC(=O)[C@H](C(C)C)NC(=O)[C@H](Cc2ccc(-c3ccccc3)cc2)NC1=O [Example 1418] ({CH2CO}-FYDWL[Bip]V[Orn][dP]NLVTCA-NH2; thioether N-14) | 0.21
9 | CC(C)C[C@@H]1NC(=O)[C@H](CCN)NC(=O)[C@H](Cc2ccccc2)N(C)C(=O)[C@H](C)N(C)C(=O)[C@H](CCCNC(=N)N)NC(=O)[C@H](Cc2ccc(-c3ccccc3)cc2)NC(=O)[C@H](C(C)C)NC(=O)[C@H](Cc2c[nH]c3ccccc23)NC(=O)[C@H](CC(=O)O)NC(=O)[C@H](Cc2ccc(O)cc2)NC(=O)[C@H](CCC(N)=O)NC(=O)CSC[C@@H](C(=O)N[C@@H](C)C(N)=O)NC(=O)[C@H](CO)NC(=O)[C@H](C(C)C)NC1=O [Example 1307] ({CH2CO}-QYDWV[Bip]R[NMeA][NMeF][Dab]LVSCA-NH2; thioether N-14) | 0.17
10 | CC(C)C[C@@H]1NC(=O)[C@H](CCCNC(=N)N)NC(=O)[C@H](Cc2ccccc2)N(C)C(=O)[C@H](C)N(C)C(=O)[C@H](CCC(=O)O)NC(=O)[C@H](Cc2ccc(-c3ccccc3)cc2)NC(=O)[C@H](C(C)C)NC(=O)[C@H](Cc2c[nH]c3ccccc23)NC(=O)[C@H](CC(=O)O)NC(=O)[C@H](Cc2ccc(O)cc2)NC(=O)[C@H](Cc2ccccc2)NC(=O)CSC[C@@H](C(=O)N[C@@H](CCC(=O)O)C(N)=O)NC(=O)[C@H]([C@@H](C)O)NC(=O)[C@H](C(C)C)NC1=O [Example 1351] ({CH2CO}-FYDWV[Bip]E[NMeA][NMeF]RLVTCE-NH2; thioether N-14) | 0.38
11 | CC(C)C[C@@H]1NC(=O)[C@H](Cc2c[nH]c3ccccc23)NC(=O)[C@H](CC(=O)O)NC(=O)[C@H](Cc2ccc(O)cc2)NC(=O)[C@H](Cc2ccccc2)NC(=O)CSC[C@@H](C(=O)NCC(N)=O)NC(=O)[C@H](CO)NC(=O)[C@H](C(C)C)NC(=O)[C@H](CC(C)C)NC(=O)[C@H](CCCNC(=N)N)NC(=O)[C@H](Cc2ccccc2)N(C)C(=O)[C@H](C)N(C)C(=O)[C@H](CCCNC(=N)N)NC(=O)[C@H](Cc2ccc(-c3ccccc3)cc2)NC1=O [Example 1327] ({CH2CO}-FYDWL[Bip]R[NMeA][NMeF]RLVSCG-NH2; thioether N-14) | 0.12
12 | CC(C)C[C@@H]1NC(=O)[C@H](Cc2c[nH]c3ccccc23)NC(=O)[C@H](Cc2nn[nH]n2)NC(=O)[C@H](Cc2ccc(O)cc2)NC(=O)[C@H](Cc2ccccc2)NC(=O)CSC[C@@H](C(=O)N[C@@H](C)C(N)=O)NC(=O)[C@H](CO)NC(=O)[C@H](C(C)C)NC(=O)[C@H](CC(C)C)NC(=O)[C@H](CC(N)=O)NC(=O)[C@H]2CCCN2C(=O)[C@H](C)N(C)C(=O)[C@H](C(C)C)NC(=O)[C@H](Cc2ccc(-c3ccccc3)cc2)NC1=O [Example 1428] ({CH2CO}-FY[Ala(1H-tetrazol-5-yl)]WL[Bip]V[NMeA][dP]NLVSCA-NH2; thioether N-14) | 0.37

Source: patent US20240360178A1, “MACROCYCLIC IMMUNOMODULATORS” (Bristol-Myers Squibb Company, priority 2021, published 2024)
